In brackets after ≈: the same amount, converted by molar mass.
Columns and labels:
Staphylococcus aureus = assay: Antibacterial activity against Staphylococcus aureus ATCC 12598 by broth dilution method; type: functional
Bacillus spizizenii = assay: Antibacterial activity against Bacillus subtilis ATCC 6633 by broth dilution method; type: functional
[1] = Cytotoxicity against human HepG2 cells assessed as decrease in cell viability after 72 hrs by MTS assay; type: functional, cell-based; conditions: HepG2, 72 h
[2] = Cytotoxicity against human HeLa cells assessed as decrease in cell viability after 72 hrs by MTS assay; type: functional, cell-based
[3] = Cytotoxicity against HEK293T cells assessed as decrease in cell viability after 72 hrs by MTS assay; type: toxicity, cell-based, HEK-293T; conditions: human
Salmonella enteritidis = assay: Antibacterial activity against Salmonella enteritidis ATCC 13076 by broth dilution method; type: functional, Salmonella enterica subsp. enterica serovar Enteritidis; conditions: Salmonella enterica
[4] = Cytotoxicity against human A549 cells assessed as decrease in cell viability after 72 hrs by MTS assay; type: functional, cell-based; conditions: A549, 72 h
[5] = Cytotoxicity against human MCF7 cells assessed as decrease in cell viability after 72 hrs by MTS assay; type: functional, cell-based; conditions: MCF7, 72 h
Escherichia coli = assay: Antibacterial activity against Escherichia coli ATCC 25922 by broth dilution method; type: functional
Pseudomonas aeruginosa = assay: Antibacterial activity against Pseudomonas aeruginosa ATCC 27853 by broth dilution method; type: functional

SMILES | MIC (Staphylococcus aureus) [µg/mL] | MIC (Bacillus spizizenii) [µg/mL] | IC50 [1] [µM] | IC50 [2] [µM] | IC50 at 72 h [3] [µM] | MIC (Salmonella enteritidis) [µg/mL] | IC50 [4] [µM] | IC50 [5] [µM] | MIC (Escherichia coli) [µg/mL] | MIC (Pseudomonas aeruginosa) [µg/mL]
CO[C@@H]1[C@H](Cl)C(=O)c2c(O)ccc3c2[C@@]12Oc1cccc4c1[C@](O3)(O2)[C@H](OC)CC4=O | 3.2 (≈ 7.19 µM) | 25 (≈ 56.2 µM) | 7.7 | 27 | 11 | > 50 | 8.9 | 6.2 | > 50 | > 50
CO[C@@H]1CC(=O)c2cccc3c2[C@@]12Oc1ccc(O)c4c1[C@](O3)(O2)[C@H](O)CC4=O | – | – | 83 | > 100 | 83 | – | 36.1 | 13 | – | –
COc1cccc2c1C(=O)c1c(O)c3c(c(O)c1C2=O)C[C@@](O)(C(=O)CO)C[C@@H]3O[C@H]1C[C@H](N)[C@@H](O)[C@H](C)O1 [EPIRUBICIN] | – | – | – | 0.42 | – | – | 0.63 | 0.71 | – | –
O=C1CC[C@]23Oc4ccc(O)c5c4[C@](Oc4cccc1c42)(O3)[C@@H]1O[C@@H]1[C@@H]5O | – | – | > 100 | > 100 | 86 | – | 76.2 | > 100 | – | –
O=C1C=C[C@]23Oc4ccc(O)c5c4[C@](Oc4cccc1c42)(O3)[C@@H]1O[C@@H]1C5=O | 13 (≈ 35.9 µM) | 50 (≈ 138 µM) | 8.5 | 14 | 17 | > 50 | 6.2 | 4.2 | > 50 | > 50
O=C1CC[C@]23Oc4ccc(O)c5c4[C@](Oc4cccc1c42)(O3)[C@@H]1O[C@@H]1C5=O | 1.6 (≈ 4.39 µM) | 13 (≈ 35.7 µM) | 4.4 | 19 | 12 | > 50 | 9.4 | 2.6 | > 50 | > 50
O=C1c2c(O)ccc3c2[C@@]2(Oc4cccc5c4[C@](C=C[C@@H]5O)(O3)O2)[C@@H]2O[C@H]12 | 13 (≈ 35.7 µM) | 25 (≈ 68.6 µM) | 3.6 | 18 | 6.9 | > 50 | 7.7 | 3.1 | > 50 | > 50
CO[C@@H]1CC(=O)c2cccc3c2[C@@]12Oc1ccc(O)c4c1[C@](O3)(O2)[C@@H]1O[C@@H]1[C@@H]4O [PREUSSOMERIN C] | > 50 | > 50 | > 100 | > 100 | > 100 | > 50 | > 100 | > 100 | > 50 | > 50
O=C(O)c1cn(C2CC2)c2cc(N3CCNCC3)c(F)cc2c1=O [CIPROFLOXACIN] | 0.25 (≈ 0.754 µM) | 0.5 (≈ 1.51 µM) | – | – | – | 0.25 (≈ 0.754 µM) | – | – | – | –
Oc1ccc2c3c1[C@@H](O)[C@H]1O[C@H]1[C@]31Oc3cccc4c3[C@](C=C[C@@H]4O)(O2)O1 | 6.2 (≈ 16.9 µM) | 13 (≈ 35.5 µM) | > 100 | > 100 | > 100 | > 50 | 40.2 | 71 | > 50 | > 50
CO[C@@H]1CC(=O)c2cccc3c2[C@@]12Oc1ccc(O)c4c1[C@](O3)(O2)[C@H](O)[C@H](Cl)C4=O | 6.2 (≈ 14.4 µM) | 50 (≈ 116 µM) | 13 | 19 | 4.8 | > 50 | 8.5 | 5.9 | > 50 | > 50
O=C1C[C@@H](O)[C@]23Oc4ccc(O)c5c4[C@](Oc4cccc1c42)(O3)[C@@H]1O[C@@H]1C5=O | 50 (≈ 131 µM) | 25 (≈ 65.7 µM) | 3.8 | 15 | 9.4 | > 50 | 5.4 | 2.5 | > 50 | > 50
O=C1C=C[C@]23Oc4ccc(O)c5c4[C@](Oc4cccc1c42)(O3)[C@@H]1O[C@@H]1[C@@H]5O [PREUSSOMERIN D] | – | – | 38 | 21 | 24 | – | 6.6 | 9.8 | – | –

Source: ChEMBL document CHEMBL3867449, “Cytotoxic and Antibacterial Preussomerins from the Mangrove Endophytic Fungus Lasiodiplodia theobromae ZJ-HQ1” (J Nat Prod, 2016)
